One data set has as its system Her2. Briefly: Her2 protein expression by western blot of cell lysates. It counts as cell-based, human. To be noted: SK-BR3 cells, 7.3 μM, 24 hrs; α-tubulin not reduced; listed as adamanolol. From the text:
Sur-2 is a human homolog of […] elegans Sur-2, a protein of unknown function whose mutations suppress the phenotype of an activated ras mutation (Singh et al., 1995), and it has been linked to the transcription-activating function of the adenovirus E1A protein and the Elk-1 transcription factor. […] To test this, we designed a cell-permeable peptide that binds Sur-2 (referred to as TAT-ESX129-145). The design takes advantage of the binding affinity of ESX129-145 and the cell internalization property of the 11-aa peptide derived from the HIV TAT protein. We first examined whether TAT ESX129-145 reduces endogenous expression of the Her2 gene in three Her2-overexpressing breast cancer cell lines, SK-BR-3, MDA-MB-453, and […] (FIG. 4). Cells were incubated in the presence or absence of TAT-ESX129-145, and the protein levels of Her2 were examined by Western blot analyses of normalized amounts of cell lysates.
Her2-overexpressing SK-BR3 cells were treated by 7.3 μM of adamanolol for 24 hrs, and whole cell lysates were analyzed by western blots. […]
SK-BR3 cells were treated by 7 μM of wrenchnolol for 24 hrs, and whole cell lysates were analyzed by western blots. […]

Data set [1] concerns SK-BR3 breast cancer cells. Briefly: Cell viability assay (WST-1) in SK-BR3 breast cancer cells. It counts as cell-based, human. Conditions: for IC50: Homo sapiens, SK-BR-3, 48 hrs incubation, WST-1; for ability to kill SK-BR3 cells (biological activity, in words): compared with adamanolol. Here is the method: SK-BR3 breast cancer cells were plated on 96-well plates at density of 5×10^3 cells/well and maintained for 24 hrs. The cells were then incubated with varied concentrations of each compound for 48 hrs, followed by addition of Premix WST-1 Solution (Takara). Cell viability was estimated by measuring absorbance at 450 nm after 1 hr with a SPECTRAmax microplatereader.

Data set [2] deals with Her2-positive breast cancer cell lines (SK-BR3, MDA-MB453, and MCF-7). Briefly: Growth and viability of Her2-positive breast cancer cell lines. The data set is classed as cell-based, human. Conditions: SK-BR3, MDA-MB453, MCF-7, 24 hrs. Here is the method: (§1) In contrast to the Her2-overexpressing cells, MDA-MB-468, a breast cancer cell line with no detectable levels of Her2, was resistant to TAT-ESX129-145 (FIGS. 5A and 5B). […] The effects of TAT-ESX129-145 on an MCF7 cell line stably transfected with the Her2 gene were examined.
(§2) The breast cancer cells were plated on 96-well plates at the density of 5×10^3 cells/well and maintained for 24 hrs. Adamanolol was added to the medium at varied concentrations and incubated for another 24 hrs. Premix WST-1 solution (Takara) was added to each well and incubated for 2 hrs. Cell viability was estimated by measuring absorbance at 450 nm with a SPECTRAmax microplate reader.

A further data set concerns MDA-MB468. Briefly: Growth and viability of Her2-negative MDA-MB468 cells. Conditions: no detectable levels of Her2; 24 hrs. The data set is classed as cell-based, human. The protocol: as §1, §2
The test system of the next data set is ESX activation domain. Briefly: Transcription reporter gene assay (GAL4 fusion, SEAP), ESX activation domain. It counts as cell-based, human. The protocol: (§3) Mammalian expression vectors each encoding the activation domain of ESX, VP16, or NFκBp65 fused with the GAL4 DNA-binding domain were used. Each expression construct was co-transfected to HEK293Tag human kidney cells together with a reporter plasmid in which the production of secreted alkaline phosphatase (SEAP) is under control of an IL-2 promoter carrying five GAL4 binding sites. After a 24 hour incubation in the presence or absence of adamanolol, an aliquot of the culture was assayed for SEAP activity. The total amounts of transfected DNA were normalized.
(§4) mammalian expression vectors, each encoding the activation domain of ESX, VP16, or NF-κB p65 fused with the GAL4 DNA-binding domain (amino acids 1-94), were used. Each expression construct was co-transfected to HEK293Tag human kidney cells together with a reporter plasmid in which the production of secreted alkaline phosphatase (SEAP) is under control of an IL2 promoter carrying five GAL4 binding sites. After 10-hr incubation with wrenchnolol (20 μM), an aliquot of the culture was assayed for SEAP activity.

For a further data set, the system named is BT474 cells. Briefly: Animal study: BT474-derived tumors in mammary fat pads of nude mice. The data set is classed as in vivo. Conditions: 20 mg/kg daily intraperitoneal, 5 consecutive days each week for two weeks. The protocol: Breast cancer cell lines derived from BT474 after one round (BT474M1) or two rounds (BT474M2) of tumorigenic selection were used. 5×10^6 cells were injected with Matrigel into mammary fat pads of nude mice. Two tumors were inoculated for each animal and each treatment group contained 5 animals. Five weeks after inoculation when the tumors were well established (about 100 mm^3 in average) the treatment started (day 0 in the figure). Each mouse received adamanolol (7QH2) at a daily dose of 20 mg/kg through intraperitoneal injection for 5 consecutive days in each week for two weeks. Tumor volumes were measured every three days. The percentile of the tumor volume related to the initial volume at day 0 was plotted for each time point. Adamanolol is a potent tumor growth inhibitor of HER-2/neu-overexpressing cancer cells in vivo.

The subject of another data set is VP16 activation domain. Nature of the data set: Transcription reporter gene assay (GAL4 fusion, SEAP), VP16 activation domain. It counts as cell-based. To be noted: HEK293Tag cells, 24 hour incubation with adamanolol. Here is the method:
as §3, §4

In a further data set the target is T1, ESX-Sur-2 interaction (Homo sapiens, UniProt Q9ULK4).
T1 construct: made in house
T1 sequence (Q9ULK4 352-625): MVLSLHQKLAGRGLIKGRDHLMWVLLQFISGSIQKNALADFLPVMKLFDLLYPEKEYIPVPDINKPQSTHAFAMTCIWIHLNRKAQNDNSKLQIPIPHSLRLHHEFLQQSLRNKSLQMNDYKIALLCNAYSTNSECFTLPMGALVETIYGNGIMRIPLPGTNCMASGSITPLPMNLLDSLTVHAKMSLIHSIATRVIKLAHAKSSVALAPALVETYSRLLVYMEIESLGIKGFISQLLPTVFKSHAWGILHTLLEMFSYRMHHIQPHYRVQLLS
Briefly: Inhibition of the ESX-Sur-2 interaction in vitro (fluorescence of FITC-ESX129-145 with GST-Sur2352-625). The data set is classed as binding. Conditions: for IC50: FITC-ESX129-145 (152 nM), GST-Sur2352-625 (212 nM); for inhibition of the ESX-Sur-2 interaction in vitro (in words): in vitro fluorescence assay. The protocol: To monitor the ESX-DRIP130 interaction, we labeled ESX129-145 with fluorescein isothiocyanate (FITC; Pierce) at the Lys144 position and measured its fluorescence spectra upon adding the glutatathione-S′-transferase (GST) fusion of DRIP130352-625. ESX129-145 was synthesized by standard Fmoc chemistry (the NH2 terminus was capped by an acetyl group during the synthesis) and purified by HPLC. The peptide was then coupled with FITC at the Lys144 position in a conjugation buffer (100 mM carbonate-bicarbonate buffer, pH 9) in dark and purified by NAP-5 desalting column (Amersham). The labeled peptide was quantified by UV and visible absorbance.
GST-Sur-2352-625 was expressed and purified. Varied concentrations of the fusion protein were added to FITC-ESX129-145 (10 nM) in phosphate buffered saline containing 2% (v/v) ethanol, and the fluorescence spectra of FITC-ESX129-145 were measured by an ABI LS-50B Fluorescence Spectrometer (Ex: 490 nm). The dissociation constant of the interaction was estimated to be 12 μM through the emission perturbation at 522 nm.
To examine the effects of adamanolol on the interaction in vitro, the ethanol component of the binding buffer was replaced with an ethanolic solution of adamanolol. The fractions of FITC-ESX129-145 (10 nM) bound to 50 μM of GST-Sur-2352-625 were estimated by measuring fluorescence emission at 522 nm. ESX129-145 and pindolol were used as positive and negative controls, respectively.
In another series of derivatives (the R3 substituents in Table 1), the adamantane group of adamanolol was substituted (11a-d). […] The binding fractions were calculated on the basis of fluorescence spectra of FITC-ESX129-145 (152 nM) in presence of GST-Sur2352-625 (212 nM) and varied concentrations of each adamanolol derivative.

A short description of data set [3]: Solubility in neutral aqueous solution. It counts as physicochemical. Here is the method: When the amino group of the handle was protonated, wrenchnolol (7b) and its aminopropyl version (7a) became soluble up to ˜1 mM in neutral aqueous solution. The high water solubility enabled NMR analysis of these molecules in a buffered aqueous solution, and their proton signals were completely assigned through a combination of NOESY, DQF-COSY, and HOHAHA data sets (Table S1).

Each structure is given as a SMILES string. Entries after “also recorded” stand apart in the source; their conditions may differ.

With `CC(C)N(CC(O)COc1cccc2[nH]ccc12)C(=O)N1CCC(C2CCN(C(=O)C34CC5CC(CC(C5)C3)C4)CC2)CC1` (stereo not drawn) [Compound 4a, 1′-(adamantane-1-carbonyl)-[4,4′]bipiperidinyl-1-carboxylic acid [2-hydroxy-3-3-(1H-indol-4-yloxy)-propyl]-isopropyl-amide], in the data set on Her2, the “expression of Her2 protein” value was “significantly reduced; also recorded: inhibition of Her2”. The IC50 in data set [1] amounted to 6.4 ± 1.8 µM; at ESX-Sur-2 interaction, 15.4 ± 0.3 µM. Moreover, the “viability of Her2-positive breast cancer cell lines” value in data set [2] (listed as Adamanolol) is “impaired the viability”; in data set [2] (listed as adamanolol), “selectively impairs the cell growth and viability”. The “viability of MDA-MB468” value in the data set on MDA-MB468 is “much milder effects”. In addition, the “ability of the ESX activation domain to stimulate transcription” value in the data set with ESX activation domain (HEK293Tag cells, 24 hour incubation with adamanolol) is on record as “impaired; also recorded: selectively inhibits”. Besides, the “tumor growth (tumor volume relative to day 0)” value in the data set on BT474 cells was “significant growth suppression”. For the same compound, the “effect on the VP16 activation domain” value in the data set on VP16 activation domain is listed as “little effects”. In addition, the “inhibition of the ESX-Sur-2 interaction in vitro (in words)” value (“inhibition of the ESX-Sur-2 interaction” for short) against ESX-Sur-2 interaction is recorded as “inhibits”.
Take `CC(C)CN(CC(O)COc1cccc2[nH]ccc12)C(=O)N1CCC(C2CCN(C(=O)C34CC5CC(CC(C5)C3)C4)CC2)CC1` (stereo not drawn) [Compound 4b]: the concentration for half-maximal inhibition (IC50) was found to be 4.1 ± 0.2 µM in data set [1] and 15.1 ± 0.8 µM against ESX-Sur-2 interaction.
With `O=C(NCC(O)COc1cccc2[nH]ccc12)N1CCC(C2CCN(C(=O)C34CC5CC(CC(C5)C3)C4)CC2)CC1` (stereo not drawn) [Compound 4d], in [1], the IC50 is over 100 µM and the “ability to kill SK-BR3 cells (biological activity, in words)” value (shortened to “ability … (biological activity, in words)”) was “abolished; also recorded: little activity”. In addition, the “ability of the ESX activation domain to activate the reporter gene” value with ESX activation domain (HEK293 cells, 20 μM, 10-hr incubation) is recorded as “almost no effects; also recorded: little effects”. Further, at ESX-Sur-2 interaction, the half-maximal inhibitory concentration (IC50) was over 40 µM and the “inhibition of the ESX-Sur-2 interaction” value is reported as “abolished”.
Consider `CC(C)(C)OC(=O)NCCCN(CC(O)COc1cccc2[nH]ccc12)C(=O)N1CCC(C2CCN(C(=O)C34CC5CC(CC(C5)C3)C4)CC2)CC1` (stereo not drawn) [Compound 4e], for which the figures for the IC50 (in data set [1]; at ESX-Sur-2 interaction) were 11.7 ± 0.1 µM and 11.9 ± 0.7 µM, respectively.
On to `Cc1ccc(S(=O)(=O)n2ccc3c(OCC(O)CN(C(=O)N4CCC(C5CCN(C(=O)C67CC8CC(CC(C8)C6)C7)CC5)CC4)C(C)C)cccc32)cc1` (stereo not drawn) [Compound 5a, N-tosyladamanolol], for which, in data set [1], the IC50 turned out to be 2.7 ± 0.3 µM and the “ability … (biological activity, in words)” value is reported as “increased the potency”. Further, on ESX-Sur-2 interaction, the IC50 was 10 ± 1 µM and the “inhibition of the ESX-Sur-2 interaction” value is on record as “increased”.
Consider `CC(C)N(CC(O)COc1cccc2c1ccn2S(=O)(=O)c1cccc2cccnc12)C(=O)N1CCC(C2CCN(C(=O)C34CC5CC(CC(C5)C3)C4)CC2)CC1` (stereo not drawn) [Compound 5b], for which the IC50 in [1] came to 5 ± 0.3 µM; on ESX-Sur-2 interaction, 12 ± 0.9 µM.
Regarding `Cc1ccc(S(=O)(=O)n2ccc3c(OCC(O)CN(CCCN)C(=O)N4CCC(C5CCN(C(=O)C67CC8CC(CC(C8)C6)C7)CC5)CC4)cccc32)cc1` (stereo not drawn) [Compound 7a], the half-inhibitory concentration (IC50) in data set [1] was 4.7 ± 0.1 µM; at ESX-Sur-2 interaction, 10.2 ± 1.1 µM. For the same compound, in data set [3], the solubility is about 1000 µM.
Regarding `CC(=O)N1CCC(C2CCN(C(=O)N(CC(O)COc3cccc4[nH]ccc34)C(C)C)CC2)CC1` (stereo not drawn) [Compound 11a], in data set [1], the IC50 was over 100 µM and the “ability … (biological activity, in words)” value is on record as “significant loss of the biological activity”. In addition, on ESX-Sur-2 interaction, the IC50 is over 40 µM and the “inhibition of the ESX-Sur-2 interaction” value is reported as “almost no ability to block”.
Taken in the same sequence, the figures for `COCC(O)CN(C(=O)N1CCC(C2CCN(C(=O)C34CC5CC(CC(C5)C3)C4)CC2)CC1)C(C)C` (stereo not drawn) [Compound 12a] were over 100 µM, “abolished”, over 40 µM and “abolished”.

(Values after US7449480B2, “Small molecule inhibitors of HER2 expression” (Baylor College of Medicine, priority 2002, dated 2008).)
